Assay results from ChEMBL document CHEMBL4049401, “Three-component, one-pot synthesis of anthranilamide Schiff bases bearing 4-aminoquinoline moiety as Mycobacterium tuberculosis gyrase inhibitors” (Bioorg Med Chem Lett, 2017).
≈ marks a conversion by molar mass, not a printed value.

Experiments:
[1] = n-octanol/water partition coefficient, log P of the compound; type: physicochemical
[2] = system: Mycobacterium tuberculosis; assay: Antimycobacterial activity against Mycobacterium tuberculosis H37Rv ATCC 27294 after 5 days by microplate alamar blue assay; type: functional; conditions: H37Rv ATCC 27294, 120 h
[3] = Cytotoxicity against African green monkey Vero cells assessed as cell viability at 100 uM by MTT assay relative to control; type: cell-based; conditions: chlorocebus sabaeus, read-out: Activity

SMILES | logP [1] | MIC [2] [µM] | viability at 100 µM [3] [%]
O=C(NNc1ccnc2cc(Cl)ccc12)c1ccccc1/N=C/c1ccc(Cl)cc1Cl | 6.22 | 6.25 (≈ 2.94 µg/mL) | 87.6
CN(C)c1ccc(/C=N/c2ccccc2C(=O)NNc2ccnc3cc(Cl)ccc23)cc1 | 5.03 | 3.12 (≈ 1.39 µg/mL) | 88.8
O=C(NNc1ccnc2cc(Cl)ccc12)c1ccccc1/N=C/C=C/c1ccccc1 | 5.54 | 3.12 (≈ 1.33 µg/mL) | 90.2
COc1cc(/C=N/c2ccccc2C(=O)NNc2ccnc3cc(Cl)ccc23)cc(OC)c1OC | 4.94 | 6.25 (≈ 3.07 µg/mL) | 89.4
Cc1ccc(/C=N/c2ccccc2C(=O)NNc2ccnc3cc(Cl)ccc23)cc1 | 5.31 | 0.78 (≈ 0.324 µg/mL) | 87.1
O=C(NNc1ccnc2cc(Cl)ccc12)c1ccccc1/N=C/c1cc2ccccc2nc1Cl | 6 | 25 (≈ 12.2 µg/mL) | 94.3
O=C(NNc1ccnc2cc(Cl)ccc12)c1ccccc1/N=C/c1ccc(F)cc1 | 5.18 | 6.25 (≈ 2.62 µg/mL) | 90.7
O=C(NNc1ccnc2cc(Cl)ccc12)c1ccccc1/N=C/c1cccs1 | 4.78 | 6.25 (≈ 2.54 µg/mL) | 89.5
O=C(NNc1ccnc2cc(Cl)ccc12)c1ccccc1/N=C/c1ccc(Cl)c(Cl)c1 | 6.22 | 25 (≈ 11.7 µg/mL) | 90.2
COc1cc(/C=N/c2ccccc2C(=O)NNc2ccnc3cc(Cl)ccc23)ccc1Oc1ccnc2cc(Cl)ccc12 | 7.74 | 3.12 (≈ 1.9 µg/mL) | 89.5
O=C(NNc1ccnc2cc(Cl)ccc12)c1ccccc1/N=C/c1ccc([N+](=O)[O-])cc1 | 4.58 | 25 (≈ 11.1 µg/mL) | 88.6
O=C(NNc1ccnc2cc(Cl)ccc12)c1ccccc1/N=C/c1ccc(Cl)cc1 | 5.62 | 3.12 (≈ 1.36 µg/mL) | 86.7
COc1ccc(/C=N/c2ccccc2C(=O)NNc2ccnc3cc(Cl)ccc23)cc1 | 5 | 1.56 (≈ 0.672 µg/mL) | 88.9
O=C(NNc1ccnc2cc(Cl)ccc12)c1ccccc1/N=C/c1cccc(Cl)c1Cl | 6.1 | 6.25 (≈ 2.94 µg/mL) | 89.1
N#Cc1ccc(/C=N/c2ccccc2C(=O)NNc2ccnc3cc(Cl)ccc23)cc1 | 4.83 | 25 (≈ 10.6 µg/mL) | 87.2
COc1ccc(/C=N/c2ccccc2C(=O)NNc2ccnc3cc(Cl)ccc23)cc1OC | 4.97 | 6.25 (≈ 2.88 µg/mL) | 89.2
O=C(NNc1ccnc2cc(Cl)ccc12)c1ccccc1/N=C/c1ccc(Br)cc1 | 5.76 | 6.25 (≈ 3 µg/mL) | 88.5
O=C(NNc1ccnc2cc(Cl)ccc12)c1ccccc1/N=C/c1ccncc1 | 3.86 | 25 (≈ 10 µg/mL) | 85.7
O=C(NNc1ccnc2cc(Cl)ccc12)c1ccccc1/N=C/c1cc2ccccc2[nH]c1=O | 4.65 | 25 (≈ 11.7 µg/mL) | 91.1
O=C(NNc1ccnc2cc(Cl)ccc12)c1ccccc1/N=C/c1ccc(O)cc1 | 4.65 | 25 (≈ 10.4 µg/mL) | 90.1
O=C(NNc1ccnc2cc(Cl)ccc12)c1ccccc1/N=C/c1ccccc1Cl | 5.5 | 25 (≈ 10.9 µg/mL) | 88.5
O=C(O)c1cn(C2CC2)c2cc(N3CCNCC3)c(F)cc2c1=O [CIPROFLOXACIN] |  | 12.5 (≈ 4.14 µg/mL) | 
NC(=O)c1cnccn1 [PYRAZINAMIDE] | -0.71 | 3.12 (≈ 0.384 µg/mL) | 
